From patent publication US20230255962A1, “COMBINATION OF A BTK INHIBITOR AND AN INHIBITOR OF CDK9 TO TREAT CANCER” (ASTRAZENECA AB, priority 2017, published 2023)

Key:
OCILy10 [1] = experiment: Western blot time course, cleaved caspase-3 (induction of apoptosis); format: cell-based; conditions: OCILy10, 100 nM AZD4573 8-hour time course, alone or following 24-hour pre-treatment with 100 nM acalabrutinib
Protocol: (§1) Two BTK inhibitor-sensitive ABC-DLBCL cell lines (OCILy10 and TMD8) and one insensitive GCB-DLBCL cell line (Karpas422) were treated for an 8-hour time course with either 100 nM AZD4573 alone or following a 24-hour pre-treatment with 100 nM acalabrutinib (since exposure to acalabrutinib for 24 hours was sufficient to induce maximal BH3-only protein levels). Cells were harvested for protein lysates at varying time points (0, 0.5, 1, 2, 4, and 8 hours) post-AZD4573 treatment, normalized for protein concentration using the BCA Protein Assay Kit, and run for western blots according to standard protocols. To ensure expected target engagement was achieved, the blots were probed for the proximal and distal biomarkers for CDK9 (pSer2-RNAPolII and Mcl-1, respectively) and the biomarker for activated BTK (pBTK). To gauge the time to induction of apoptosis, cleaved caspase-3 was also assessed. A loading control (vinculin) was also utilized for normalization.
The BTK inhibitor-sensitive ABC-DLBCL cell line OCILy10 was treated in vitro for an 8-hour time course with either 100 nM AZD4573 alone or following a 24-hour pre-treatment with 30 nM ibrutinib since, similar to acalabrutinib, exposure for 24 hours was sufficient to induce maximal BH3-only protein levels (data not shown). […] To gauge the time to induction of apoptosis, cleaved caspase-3 was also assessed. […]

TMD8 [2] = experiment: as above; format: cell-based; conditions: TMD8, 100 nM AZD4573 8-hour time course, alone or following 24-hour pre-treatment with 100 nM acalabrutinib
Protocol: as §1

OCILy10 [3] = experiment: TMRE/DAPI flow cytometry, percentage of apoptotic or dead cells; format: cell-based
Protocol: (§2) Two BTK inhibitor-sensitive ABC-DLBCL cell lines (OCILy10 and TMD8) and one insensitive GCB-DLBCL cell line (Karpas422) were treated with either vehicle (DMSO), 100 nM acalabrutinib, or 100 nM AZD4573 for varying lengths of time as either single agent or in combination. Since exposure of BTKi-sensitive cell lines to acalabrutinib for 24 hours was sufficient to induce maximal BH3-only protein levels relative to vehicle-treated cells (FIG. 1), 24-hour pre-treatment of acalabrutinib was chosen for one of the combination sequences. Therefore, cells were treated with: 32 hours of acalabrutinib alone; 8 hours of AZD4573 alone; 8 hours of AZD4573 and acalabrutinib dosed concurrently; or 32 hours of acalabrutinib with AZD4573 added sequentially for the final 8 of those 32 hours (in other words, 24 hours of acalabrutinib pre-treatment).
(§3) The percentage of apoptotic or dead cells was determined by staining the samples with both tetramethylrhodamine, ethyl ester (TMRE) and 4′,6-diamidino-2-phenylindole (DAPI) and then subjecting them to flow cytometry using a BD LSR Fortessa. TMRE is a positively charged dye that accumulates in active mitochondria, and cells undergoing apoptosis experience mitochondrial outter membrane permeabilization (MOMP), which then fails to retain TMRE. […] Following appropriate treatments, cells were stained directly with 200 nM TMRE, incubated for 30 minutes at 37° C., resuspended in flow buffer containing DAPI, and subjected to flow cytometry. Flowjo was used to establish appropriate gates according to viability (DAPI) and MOMP (TMRE), and viable cells were defined as those with low DAPI and high TMRE staining.

OCILy10 tumor cells = experiment: Subcutaneous tumor model, tumor volume; format: in vivo, C.B.-17 SCID female mice; conditions: OCILy10, following 3 cycles of dosing; AZD4573 ip BID 2 on/5 off, ibrutinib 12 mg/kg po QD
Protocol: AZD4573 was formulated in dimethylacetamide (DMA)/polyethylene glycol 400 (PEG 400)/1% w/v Tween 80 solution 2/30/68 and dosed at 5 mL/kg, intraperitoneally (ip), BID with a 2 hour split on days 1 and 2 followed by a 5 day dose holiday; i.e., a 2 on/5 off schedule. […]
5×10^6 OCILy10 tumor cells or 10×10^6 TMD8 tumor cells were injected subcutaneously in the right flank of C.B.-17 SCID female mice in a volume of 0.1 mL containing 50% matrigel. 10×10^6 Karpas-422 tumor cells were injected subcutaneously in the right flank of SCID beige female mice in a volume of 0.1 mL containing 50% matrigel. Tumor volumes (measured by caliper), animal body weight, and tumor condition were recorded twice weekly for the duration of the studies. The tumor volume was calculated using the formula: length (mm)×width (mm)^2×0.52. For efficacy studies, growth inhibition from the start of treatment was assessed by comparison of the differences in tumor volume between control and treated groups. […]
AZD4573 was formulated in dimethylacetamide (DMA)/polyethylene glycol 400 (PEG 400)/1% w/v Tween 80 solution 2/30/68 and dosed at 5 mL/kg, intraperitoneally (ip), bi-daily (BID) with a 2 hour split on days 1 and 2 with a 5 day dose holiday. […] Tumor volumes (measured by caliper), animal body weight, and tumor condition were recorded twice weekly for the duration of the studies. […]

OCILy10 [4] = experiment: CellTiter-Glo viability readout, 72 hours, GI50; format: cell-based; conditions: OCILy10, 10-point dose-response
Protocol: (§4) Two ABC-DLBCL (OCILy10 and TMD8) cell lines and one GCB-DLBCL (Karpas422) cell line were treated with either vehicle (DMSO) or a 10-point, ½ log serially dilution of acalabrutinib for 72 hours with a CellTiter-Glo viability readout. The concentration at which 50% growth is inhibited (GI50) was calculated using GraphPad Prism or GeneData.

TMD8 [5] = experiment: CellTiter-Glo viability readout, 72 hours, GI50; format: cell-based; conditions: TMD8, 10-point dose-response
Protocol: as §4

OCILy10 [6] = experiment: Western blot of Bcl2 family / BH3-only protein levels; format: cell-based
Protocol: (§5) OCILy10, TMD8, and Karpas422 were treated with either vehicle or 100 nM acalabrutinib for 2 to 72 hours. Protein lysates were harvested at multiple time points in that interval, protein concentration was determined using the BCA Protein Assay Kit, and Western blots were performed according to standard protocol to assess the effects on Bcl2 family protein levels. Each sample was normalized to vinculin as a loading control, and then protein levels of acalabrutinib-treated samples were calculated relative to those of vehicle-treated samples.
The BTK inhibitor-sensitive ABC-DLBCL cell line OCILy10 was treated in vitro for an 8-hour time course with either 100 nM AZD4573 alone or following a 24-hour pre-treatment with 30 nM ibrutinib since, similar to acalabrutinib, exposure for 24 hours was sufficient to induce maximal BH3-only protein levels (data not shown). Cells were harvested for protein lysates at varying time points (0, 0.5, 1, 2, 4, and 8 hours) post-AZD4573 treatment, normalized for protein concentration using the BCA Protein Assay Kit, and run for Western blots according to standard protocols. To ensure expected target engagement was achieved, the blots were probed for the proximal and distal biomarkers for CDK9 (pSer2-RNAPolII and Mcl-1, respectively) and the biomarker for activated BTK (pBTK). […] To gauge the time to induction of apoptosis, cleaved caspase-3 was also assessed. […]

Karpas422 [7] = experiment: as above; format: cell-based; conditions: Karpas422, 100 nM acalabrutinib
Protocol: as §5

TMD8 [8] = experiment: as above; format: cell-based
Protocol: as §5

Karpas422 [9] = experiment: TMRE/DAPI flow cytometry, percentage of apoptotic or dead cells; format: cell-based; conditions: Karpas-422, 100 nM acalabrutinib alone or in combination with 100 nM AZD4573
Protocol: as §2, §3

Row | Compound | induction of cleaved caspase (OCILy10 [1]) | induction of cleaved caspase (TMD8 [2]) | cell death (OCILy10 [3]; OCI-LY-10, 8 hours of 100 nM AZD4573 alone) [%] | complete response, % of treated animals (OCILy10 tumor cells) [%] | sensitivity to BTK inhibition (dose-response) (OCILy10 [4]) | sensitivity to BTK inhibition (dose-response) (TMD8 [5]) | time to maximal BH3-only protein levels following dosing (OCILy10 [6]; BTK inhibitor-sensitive cells (OCILy10), 100 nM) [h] | levels of pro-apoptotic BH3-only proteins Bim and Bmf (OCILy10 [6]; OCILy10, 100 nM acalabrutinib, 24 hours, relative to the insensitive cell line) | BH3-only protein levels (Karpas422 [7]) | time to maximal BH3-only protein levels following dosing (TMD8 [8]; BTK inhibitor-sensitive cells (TMD8), 100 nM) [h] | levels of pro-apoptotic BH3-only proteins Bim and Bmf (TMD8 [8]; TMD8, 100 nM acalabrutinib, 24 hours, relative to the insensitive cell line) | effect on apoptotic/dead cells (Karpas422 [9]) | cell death (OCILy10 [3]; OCI-LY-10, 32 hours of 100 nM acalabrutinib alone) [%]
1 | CC(=O)N[C@@H]1CCC[C@H](C(=O)Nc2cc(-c3cnn4c3CC(C)(C)C4)c(Cl)cn2)C1 [AZD4573, (1S,3R)-3-acetamido-N-(5-chloro-4-(5,5-dimethyl-5,6-dihydro-4H-pyrrolo[1,2-b]pyrazol-3-yl)pyridin-2-yl)cyclohexanecarboxamide] | mild caspase activation by 8 hours | mild caspase activation by 8 hours | ~40 | 100 | – | – | – | – | – | – | – | – | –
2 | CC#CC(=O)N1CCC[C@H]1c1nc(-c2ccc(C(=O)Nc3ccccn3)cc2)c2c(N)nccn12 [acalabrutinib, (S)-4-(8-amino-3-(1-but-2-ynoylpyrrolidin-2-yl)imidazo[1,5-a]pyrazin-1-yl)-N-(pyridin-2-yl)benzamide] | – | – | – | – | sensitive | sensitive | ≤ 24 | increased | did not increase | ≤ 24 | increased | minimal effect | ~20
